Patent EP3833345B1, “SMALL MOLECULE-INHIBITORS OF 6-PHOSPHOFRUCTO-1-KINASE FOR REDUCING LACTATE GENERATION BY CANCER CELLS” (Kemijski Institut, priority 2018, dated 2020)
“Also recorded” adds a separate entry of the source.

Assays:
Caco-2 cells [1] = test: cytotoxicity in Caco-2 cells (lactate dehydrogenase (LDH) kit); format: cell-based; conditions: for average percent of dead cells, Caco-2: single addition, average over control and different concentrations of inhibitor
Procedure: (§1) Lactate generation, growth yield and survival under normal and inhibitory conditions of three different tumorigenic cells lines were determined in more detailed measurements. […] Cytotoxicity was measured by the Lactate dehydrogenase (LDH) kit (Roche).

[2] = target: T1, modified (70 kDa) 6-phosphofructo-1-kinase (PFK-L), sfPFK-L (Homo sapiens, UniProt P17858); test: in vitro inhibition of purified recombinant modified PFK-L fragment
T1 sequence (P17858 1-645 limits assumed): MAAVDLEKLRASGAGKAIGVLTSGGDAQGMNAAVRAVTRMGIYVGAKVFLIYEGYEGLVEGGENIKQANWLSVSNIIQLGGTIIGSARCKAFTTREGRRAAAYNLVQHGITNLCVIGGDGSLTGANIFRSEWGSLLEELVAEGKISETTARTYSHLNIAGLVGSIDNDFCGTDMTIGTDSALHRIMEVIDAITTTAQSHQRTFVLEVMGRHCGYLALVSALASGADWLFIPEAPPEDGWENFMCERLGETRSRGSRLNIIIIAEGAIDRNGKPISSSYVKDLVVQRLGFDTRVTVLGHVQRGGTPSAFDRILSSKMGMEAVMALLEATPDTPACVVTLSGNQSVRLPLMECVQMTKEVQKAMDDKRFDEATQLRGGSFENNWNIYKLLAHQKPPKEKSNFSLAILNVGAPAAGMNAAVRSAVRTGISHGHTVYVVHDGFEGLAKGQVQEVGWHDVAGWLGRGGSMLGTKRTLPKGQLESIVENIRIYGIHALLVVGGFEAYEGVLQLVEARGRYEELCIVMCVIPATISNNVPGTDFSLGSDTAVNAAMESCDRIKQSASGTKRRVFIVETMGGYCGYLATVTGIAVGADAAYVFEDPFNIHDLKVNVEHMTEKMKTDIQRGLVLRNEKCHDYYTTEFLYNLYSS

Caco-2 cells [3] = test: lactate excretion by Caco-2 cells; format: cell-based; conditions: single addition, different concentrations (20-80 µM)
Procedure: Preliminary in vivo tests were run by measuring lactate production by three different tumorigenic cell lines. […] For the experiment, the following tumorigenic cells lines originating from different tumours were tested: Caco-2 cells (Figure 10a), originating from colorectal adenoma carcinoma; COLO 829 cells (Figure 10b), isolated from melanoma; and MDA-MB-231 cells (Figure 10c) derived from metastatic phase of mammary/breast cancer.
as §1
(§2) Therefore, the influence of selected inhibitors was assessed by sequential re-insertion of low concentrations of inhibitors at indicated time points. The inhibitors were first added to the medium 8 hours after the inoculation followed by periodically additions at 24-hour intervals (marked by arrows).

Jurkat cells [4] = test: long-term fed-batch cultivation of Jurkat cells (18 days); conditions: 100 µM, fed-batch, 18 days
Jurkat cells [5] = test: growth and survival of Jurkat cells (Countess, Trypan blue); format: cell-based
Procedure: The effects of both inhibitors were tested also on growth of the non-adherent Jurkat cells. Total amount of cells and the number of dead cells was determined by the Countess (Invitrogen, Carlsbad, CA). […].

COLO 829 cells [6] = test: lactate excretion by COLO 829 cells; format: cell-based; conditions: for lactate formation in COLO 829 cells, sequential re-insertion: inhibitor added 8 hours after inoculation, then at 24-hour intervals, low concentrations (from 10 µM)
Procedure: (§3) Preliminary in vivo tests were run by measuring lactate production by three different tumorigenic cell lines. Again, 100 µM concentrations of tested compounds have been added to the medium. For the experiment, the following tumorigenic cells lines originating from different tumours were tested: Caco-2 cells (Figure 10a), originating from colorectal adenoma carcinoma; COLO 829 cells (Figure 10b), isolated from melanoma; and MDA-MB-231 cells (Figure 10c) derived from metastatic phase of mammary/breast cancer. All adherent cell lines were grown in the RPMI 1640 GlutaMAX substrate (Thermo Fisher) supplemented with 10% FBS.
On the basis of preliminary results, inhibitors No. 23, 29, 30 and 31 were tested on COLO 829 cells. […] No significant discrepancies of total cell numbers in respect to the control were observed due to the different concentrations of inhibitors in the medium (Figure 13e). The average percent of dead COLO 829 cells in the control and in the presence of different concentrations of inhibitors were as follows: inh. 23 (9,23±0,6%), inh. 29 (9,31±0,73%), inh. 30 (8,27±0,49%), inh. 31 (8,26±0,38%). Additionally, cytotoxicity of inh. 3 (5,01±1,08%) and 9 (3,65±0,78%) for COLO 829 cells were also determined. No dose dependent decrease of survival was observed by any inhibitor.
as §2, with “A decrease in inhibitory effectiveness of some compounds was observed after certain period of time (Example 11). […] Therefore,” for “Therefore,”
No significant cytostatic (Figure 16f) of cytotoxic effect of inhibitors could be detected after 92 hours of incubation despite of sequential addition of various concentrations of inhibitors. The following average percentages of dead cells were perceived in the medium without and media with inh. 3 (1,95±0,15%) inh. 9 (1,70±0,14%), inh. 23 (2,40±0,09%), inh. 29 (1,66±0,25%) and inh. 30 (1,38±0,18%). No detrimental effects of increased inhibitors concentrations on cell deaths have been observed.

Jurkat cells [7] = test: Seahorse XF assay (ECAR and OCR) in Jurkat cells; format: cell-based, human
Procedure: The efficiency of Inhibitors No. 3 and No. 9 was also tested by the determinations of glycolytic capacities in Jurkat cells in the presence and absence of inhibitors. For this purpose, Seahorse XF assay (Agilent Technology) was performed that enables non-destructive measurements of extracellular acidification rate (ECAR) and oxygen consumption rate (OCR) of tested cells. The cells were incubated in […] GlutaMAX medium with 10% FBS and 24 hours before the experiment inhibitors were added (100 µM). Non-adherent Jurkat cells (1×10^6 per mL) were stuck to the bottom of the wells by poly-I-lysine. The experiment was conducted essentially as recommended by Seahorse XF protocol and after 20 minutes of incubation, 1 µM of oligomycin A (ATP synthase inhibitor) and 0,25 µM of Carbonyl cyanide-4-(trifluoromethoxy)phenylhydrazone (FCCP) (mitochondrial oxidative phosphorylation uncoupler) were added to the cells. […] Reduced lactate excretion by the cells treated with both inhibitors might be responsible for reduced ECARs. Although the addition of oligomycin A and FCCP increased the extracellular acidification rate by the cells treated with both inhibitors, similar increase of ECAR was also observed in the untreated cells. […] It implies that inhibited PFK1 enzymes might reduce glycolytic flux and prevent the need for pyruvate reduction into lactate by re-oxidizing redundant cytosolic NADH. Under such conditions pyruvate can enter mitochondria, replenishing tri-carboxylic acids (TCA) cycle and fuelling oxidative respiration.

COLO 829 cells [8] = test: cytotoxicity in COLO 829 cells (LDH kit); format: cell-based; conditions: for average percentages of dead cells, COLO 829, sequential re-insertion: sequential addition at 24-hour intervals, 92 hours, average over medium without and with inhibitor; for average percent of dead COLO 829 cells: single addition, average over control and different concentrations of inhibitor
Procedure: as §1

Jurkat cells [9] = test: NADH levels in Jurkat cells (NADH/NAD fluorometric assay kit); format: cell-based, human; conditions: 24 hours after addition, different concentrations
Procedure: By inhibiting modified PFK-M enzyme in the cancer cells, glycolytic flux should be decreased and concomitantly NADH levels reduced. To verify that, the amounts of reduced pyridine nucleotide was measured by NADH/NAD fluorometric assay kit (Abcam). The Jurkat cells were seeded into the wells of 96 wells plate at 5×10^5 cells per mL. The untreated cells (control) and the cells with specified amounts of added Inhibitors No. 3 and No. 9 were incubated for 24 hours.

MDA-MB-231 cells [10] = test: cytotoxicity in MDA-MB-231 cells (LDH kit); format: cell-based; conditions: for average percentages of dead cells, MDA-MB-231, sequential re-insertion: sequential addition at 24-hour intervals, 92 hours, average over medium without and with inhibitor; for average percent of dead MDA-MB-231 cells: single addition, average over control and different concentrations of inhibitor
Procedure: as §1
Inhibitors No. 23, 29, 30 and 31 were tested for preventing lactate generation by the MDA-MB-231 cells.

Jurkat cells [11] = test: lactate excretion by Jurkat cells (enzymatic L-lactic acid kit); format: cell-based, human
Procedure: The cells were incubated in 1 mL volume (24 well plates) at 5% CO2 and 37°C. The inhibitors were added in 100 µM concentration. As a control, equivalent amount of DMSO as used for the addition of inhibitors was supplemented to the medium. The tests started with 1×10^5 cells per mL. Extracellular lactate excreted by the Jurkat cells was measured in the supernatant of the growth medium after the cells were removed by centrifugation at 1500 rpm for 5 minutes. Lactate concentration was determined enzymatically using L-Lactatic acid kit (K-LATE, Megazyme, Ireland).
Measurements of lactate excretion in the tumorigenic Jurkat cells and the cells treated with two selected inhibitors at different concentrations were repeated by more detailed measurements. The growth conditions were identical to those described in Experiment 2. No significant difference in lactate excretion could be observed by the treated and untreated cells during the initial stage of growth that lasted for approximately 12 hours. Later on lactate excretion by the Jurkat cells ceased in the presence of both inhibitors.

MDA-MB-231 cells [12] = test: lactate excretion by MDA-MB-231 cells; format: cell-based; conditions: single addition, different concentrations
Procedure: as §3
Inhibitors No. 23, 29, 30 and 31 were tested for preventing lactate generation by the MDA-MB-231 cells. […] No significant discrepancies of total cell numbers were observed (Figure 14e) due to the different concentrations of inhibitors in the medium. […] The average percent of dead MDA-MB-231 cells in the control and in the presence of different concentrations of inhibitors were as follows: inh. 23 (2,98±0,2%), inh. 29 (3,37±0,39%), inh. 30 (3,4±0,21%), inh. 31 (6,87±0,44%). Additionally, cytotoxicity of inh. 3 (7,2±0,47%) and 9 (6,59±0,29%) for MDA-MB-231 cells were also determined. No dose dependent decrease of survival was observed by any inhibitor.
as §2, with “A decrease in inhibitory effectiveness of some compounds was observed after certain period of time (Example 11). […] Therefore,” for “Therefore,”
In MDA-MB-231 calls similar results to those found in Caco-2 cells were observed. […] No significant cytostatic (Figure 17f) or cytotoxic effect of inhibitors could be detected after 92 hours of incubation despite of sequential addition of various concentrations of inhibitors. The following average percentages of dead cells were perceived in the medium without and with inh. 3 (2,05±0,18%), inh. 9 (1,85±0,05%), inh. 23 (2,20±0,15%), inh. 29 (1,54±0,16%) and inh. 30 (2,00±0,18%). No detrimental effects of increased inhibitors concentrations on cell deaths have been observed.

Caco-2 cells [13] = test: total cell numbers of Caco-2 cells at end of incubation; format: cell-based; conditions: single addition, end of incubation (92 hours)
Procedure: as §1

O=C(CCS(=O)(=O)c1ccccc1)Nc1nnc(-c2ccno2)o1 [Inhibitor No. 32, 3-(benzenesulfonyl)-N-(5-isoxazol-5-yl-1,3,4-oxadiazol-2-yl)propanamide]
average percent of dead cells, Caco-2 (Caco-2 cells [1]): 3,97±0,18%
IC50 [2]: 8 µM
lactate generation by Caco-2 cells (Caco-2 cells [3]): strong inhibition at all tested concentrations

COc1ccc(-c2cccc(-c3ccn(Cc4noc(C)n4)n3)c2)nn1 [Inhibitor No. 9, 3-methoxy-6-(3-{1-[(5-methyl-1,2,4-oxadiazol-3-yl)methyl]-1H-pyrazol-3-yl}phenyl)pyridazine]
average percentages of dead cells, Caco-2, sequential re-insertion (Caco-2 cells [1]; sequential addition at 24-hour intervals, 92 hours, average over medium without and with inhibitor): 5,05±0,62%
average percent of dead cells, Caco-2 (Caco-2 cells [1]): 3,33±0,14%
viability of the Jurkat cells, long-term (Jurkat cells [4]): remained unchanged
number of cells, long-term (Jurkat cells [4]; fresh medium with inhibitor every 48 hours): steadily declined
dead cells (Jurkat cells [5]; Jurkat cells stained with Tripan blue): 3,76±0,3%
effect on growth of Jurkat cells (total cell numbers) (Jurkat cells [5]; different concentrations, 72 hours): no effect
lactate formation in COLO 829 cells, sequential re-insertion (COLO 829 cells [6]): strong reduction of lactate formation
ECAR and OCR values prior to the addition of oligomycin A and FCCP (Jurkat cells [7]; 100 µM added 24 hours before the experiment, treated versus untreated cells): untreated Jurkat cells revealed higher ECAR and OCR values
oxygen consumption rate after addition of oligomycin A and FCCP (Jurkat cells [7]; 100 µM, 1 µM oligomycin A and 0,25 µM FCCP, versus untreated cells): slightly stronger affect
average percentages of dead cells, COLO 829, sequential re-insertion (COLO 829 cells [8]): 1,70±0,14%
average percent of dead COLO 829 cells (COLO 829 cells [8]): 3,65±0,78%
NADH levels (Jurkat cells [9]): steadily decreased in dose dependent manner
average percentages of dead cells, MDA-MB-231, sequential re-insertion (MDA-MB-231 cells [10]): 1,85±0,05%
average percent of dead MDA-MB-231 cells (MDA-MB-231 cells [10]): 6,59±0,29%
time at which lactate production was averted (Jurkat cells [11]; inhibitor concentrations lower than 200 µM): 36 h
lactate excretion by the Jurkat cells (Jurkat cells [11]; preliminary test, 100 µM inhibitor, followed for 48 hours, versus DMSO control): Significantly lowered lactate excretions; also recorded: effectively prevented excretion

Nc1nnc(-c2cc(-c3ccc(O)cc3)on2)o1 [Inhibitor No. 30, 4-[3-(5-amino-1,3,4-oxadiazol-2-yl)isoxazol-5-yl]phenol]
lactate formation in COLO 829 cells, sequential re-insertion (COLO 829 cells [6]): slightly weaker inhibitions
lactate excretion by COLO 829 cells (COLO 829 cells [6]; single addition, different concentrations): strongest reductions of lactate excretion
lactate excretion by MDA-MB-231 cells (MDA-MB-231 cells [12]): strong inhibition
average percentages of dead cells, COLO 829, sequential re-insertion (COLO 829 cells [8]): 1,38±0,18%
average percent of dead COLO 829 cells (COLO 829 cells [8]): 8,27±0,49%
average percentages of dead cells, MDA-MB-231, sequential re-insertion (MDA-MB-231 cells [10]): 2,00±0,18%
average percent of dead MDA-MB-231 cells (MDA-MB-231 cells [10]): 3,4±0,21%
IC50 [2]: 10 µM
total cell numbers, Caco-2 (Caco-2 cells [13]): minor dose dependent reductions in total cell numbers
